Paper PMC9321647, “Curcumin-Based β-Diketo Ligands for Ga^3+: Thermodynamic Investigation of Potential Metal-Based Drugs” (Pharmaceuticals, 2022)
Like-named read-outs stand apart in the source and are kept apart here.

Experiments:
[1] = Keto-enol/diketo tautomer amounts by 1H NMR; assay type: physicochemical; details: molar percentage, MeOD-d4, 298 K; for KE (%) amount of keto–enol form: for 2 includes KE form of the Z isomer (6%)
Protocol: NMR spectra were recorded by means of a Bruker Biospin FT-NMR AVANCE III HD (600 MHz) spectrometer equipped with a CryoProbe BBO H&F 5 mm in inverse detection. The nominal frequencies were 150.90 MHz for ^13C and 600.13 MHz for ^1H, respectively. For each sample, 1–5 mg were weighed and diluted up to 0.6 mL with a proper solvent in a 5 mm NMR tube; 90° pulse was calibrated for each sample, and standard NMR parameters were used to achieve quantitative results (relaxation delay, 10 s). Proton and carbon chemical shifts are given in parts per million (ppm) versus external TMS and were determined by reference to the solvent residual signals. Typical 2D homo- and heteronuclear techniques were used for assignment, i.e., ^1H,^1H COSY, ^1H,^13C HSQC, ^1H,^13C HMBC. NMR investigations of Ga^3+:L systems were performed in MeOD-d4 by adding small amounts of a Ga(NO3)3 solution (10 μL each) to 1 mM ligand solution (0.6 mL) until reaching the desired metal-to-ligand molar ratio. The complexation reaction is fast, and spectra were registered few minutes after the addition. Two-dimensional ^1H,^13C heteronuclear multiple bond correlation (HMBC) experiments (hmbcgpndqf in Bruker library) were performed via heteronuclear zero and double quantum coherence, optimized on long-range couplings (^3/4JHC = 8 Hz), with no decoupling during acquisition, and gradient pulses were used for selection. The relative percentages of the isomeric forms were estimated on the basis of the NMR data. Particularly, ^1H NMR spectra were acquired in quantitative conditions being D1 (relaxation delay) at least five times the T1 of the slowest relaxing signal of interest. The raw data were Fourier-transformed, and then the processing was performed by zero filling (SI = TD), line broadening (lb 0.3 Hz), accurate phasing and correcting the baseline. The most isolated signals were selected for integration, i.e., the vinyl protons (H-3 and H-4), and an average of the integrated area (A) of H-3 and H-4 was used for relative quantitation, according to the following equation: %Tautomeri=(A(H−3)i+(A(H−4)i)/2/∑i(A(H−3)i+(A(H−4)i)/2×100

[2] = Spectrophotometric pH titrations of ligands (protonation constants, pKa); assay type: physicochemical; details: 298 K; for logβ011 overall protonation constant / logβ012 overall protonation constant / logβ013 overall protonation constant: HypSpec, spectrophotometric data; for pKa: aqueous solution (methanol stock diluted in water)
Protocol: UV–visible spectra were recorded with a JASCO V-570 UV/Vis/NIR spectrophotometer at 298 K in the 250–600 nm spectral range employing quartz cells (1 cm optical path). To perform spectrophotometric titrations, ligands (denoted generally as L in the following) were dissolved in methanol to give a mother solution (2.50 mM), that was then diluted in water in order to obtain a final concentration of 50 μM. The metal/ligand (M:L) solutions were obtained by adding appropriate quantities of Ga(NO3)3 as methanol solutions (5–10 mM) in order to obtain the metal-to-ligand 1:1 molar ratio (L = 50 μM and V = 25 mL). For both L and M:L systems, pH (initial value of about 5) was varied by adding small amounts (<1 μL) of concentrated NaOH (4 M) up to ca. pH 11, thus to consider volume variations negligible. To evaluate the complexation ratio, constant additions of the M solution (10 µL each time, M = 10^–2 M) were dropped into the ligand solution (V = 25 mL, L = 50 μM) using a micropipette in order to reach different M:L molar ratios. A constant ionic strength (NaNO3, 0.1 M) was maintained in all experiments. Spectrophotometric investigations of iron(III) systems were performed in the same conditions; the Fe^3+ solution was freshly prepared in methanol starting from Fe(NO3)3·9H2O. The overall protonation constants (logβqr) and the overall stability constants of metal complexes (logβpqr) were evaluated from spectrophotometric data. The stability constants (βpqr), defined by the following equations:(3) pM^m++qL^l^−+rH^+⇌MpLqHr(mp−lq+r) (4) βpqr=[MpLqHr(mp−lq+r)]/[M^m+]^p·[L^l−]^q·[H^+]^r where L is the ligand in the completely dissociated form and H is proton, were refined using least-squares calculation in HypSpec. The results of least-squares calculation include the standard deviations and correlation coefficients of the refined parameters. The quantities are obtained by performing error propagation calculation from the experimental errors onto the parameters. The stability constant refinement furnishes least-squares estimates of the standard deviation, σ, of the stability constant β. The error on logβ is calculated as follows: σ(logβ) = [log(β + σ) − log(β − σ)]/2.

[3] = system: HCT116 colon carcinoma cells; assay: MTT cell viability assay; assay type: cell-based, Human; details: mean
Protocol: Human colorectal carcinoma HCT116 cells (#91091005, ECACC) were grown in an IMDM medium (Biowest) supplemented with 2 mM glutamine, 100 IU/mL penicillin, 100 μg/mL streptomycin and 10% FBS (Gibco). The cell lines were grown at 37 °C in a humidified incubator containing 5% CO2. The cells were verified to be mycoplasma-free and passaged < 3 months. The inhibition of cell proliferation was measured by colorimetric 3-(4,5-dimethylthiazol-2-yl)-2,5-diphenyltetrazolium bromide (MTT) assay. GI50 concentrations were determined using the CompuSyn software version 1.0 (ComboSyn, Inc., Paramus, NJ USA) (free download via www.combosyn.com, accessed on 30 May 2022), and statistical analyses were performed using the GraphPad PRISM software (version 6.01 for Windows, GraphPad Software, San Diego, California USA GraphPad Prism) using unpaired t-test. Data were considered to be statistically significant if p < 0.05 (*), p < 0.01 (**), p < 0.001(***) and p < 0.0001 (****).

[4] = calculated from logβ values, * = keto–enol moiety dissociation

| Compound | KK (%) amount of diketo form [1] | KE (%) amount of keto–enol form [1] | logβ011 overall protonation constant [2] | logβ012 overall protonation constant [2] | logβ013 overall protonation constant [2] | pKa1 [2, 4] | pKa2 [2, 4] | pKa3 [2, 4] | GI50 ([3]; HCT116, 48 h of treatment) | pKa ([2]; calculated from logβ values, * = keto–enol moiety dissociation, read-out: pKa1) | pKa ([2]; calculated from logβ values, * = keto–enol moiety dissociation, read-out: pKa2) | pKa ([2]; calculated from logβ values, * = keto–enol moiety dissociation, read-out: pKa3) | GI50 ([3]; Homo sapiens, HCT-116, HCT116, 48 h of treatment) |
| --- | --- | --- | --- | --- | --- | --- | --- | --- | --- | --- | --- | --- | --- |
| 2-((4Z,6E)-5-hydroxy-7-(4-hydroxyphenyl)-4-((E)-3-(4-hydroxy-3-ethoxyphenyl) acryloyl) hepta-4,6-dien-1-yl)isoindoline-1,3-dione [Compound 5] | 30% | 70% | 10.44 (3) | 20.45 (2) | 29.58 (4) | 9.13 (6) | 10.01 (5) | 10.44 (3) | 8.76 µM |  |  |  |  |
| COc1cc(/C=C/C(=O)C(CCCN2C(=O)c3ccccc3C2=O)C(=O)/C=C/c2ccc(O)c(OC)c2)ccc1O [Compound 4] | 53% | 47% | 10.78 (4) | 20.44 (6) | 29.44 (6) |  |  |  |  | 9 | 9.66 | 10.8 | 5.36 µM |
